Where two headings read alike, the source gives them in different places.
Assays:
Plasmopara viticola = settings: in vivo
Phytophthora infestans [1] = type: in vivo
Phytophthora infestans [2] = experiment: whole plant or invertebrate; type: in vivo; settings: for Test B rating (100 = 100% disease control, 0 = no disease control relative to the controls): in vivo
[3] = tomato seedlings, sprayed to run-off 17 h after inoculation, application rate not given for unstarred values (40 ppm suspension mentioned)

Cc1cc(C(F)(F)F)nn1CC(=O)N1CCC(c2nc(C(CC(O)c3c(F)cccc3F)=NO)cs2)CC1 (stereo not drawn) [Compound 13, 3-(2,6-difluorophenyl)-3-hydroxy-1-[2-[1-[2-[5-methyl-3-(trifluoromethyl)-1H-pyrazol-1-yl]acetyl]-4-piperidinyl]-4-thiazolyl]-1-propanone 1-oxime]
Test A rating (100 = 100% disease control, 0 = no disease control relative to the controls) (Plasmopara viticola): 93%
Test C rating (100 = 100% disease control, 0 = no disease control relative to the controls) (Phytophthora infestans [1]; [3]): 97%

Cc1cc(C(F)(F)F)nn1CC(=O)N1CCC(c2nc(C=NO)cs2)CC1 [Compound 8, 4-[4-[(hydroxyimino)methyl]-2-thiazolyl]-1-[[5-methyl-3-(trifluoromethyl)-1H-pyrazol-1-yl]acetyl]piperidine]
Test A rating (100 = 100% disease control, 0 = no disease control relative to the controls) (Plasmopara viticola): 99%
Test C rating (100 = 100% disease control, 0 = no disease control relative to the controls) (Phytophthora infestans [1]; [3]): 97%

Cc1cc(C(F)(F)F)nn1CC(=O)N1CCC(c2nc(C(CCc3c(F)cccc3F)=NO)cs2)CC1 [Compound 21, 3-(2,6-difluorophenyl)-1-[2-[1-[2-[5-methyl-3-(trifluoromethyl)-1H-pyrazol-1-yl]acetyl]-4-piperidinyl]-4-thiazolyl]-1-propanone 1-oxime]
Test A rating (100 = 100% disease control, 0 = no disease control relative to the controls) (Plasmopara viticola): 57%

CC(=O)ON=C(C=Cc1c(F)cccc1F)c1csc(C2CCN(C(=O)Cn3nc(C(F)(F)F)cc3C)CC2)n1 [Compound 23, 3-(2,6-difluorophenyl)-1-[2-[1-[2-[5-methyl-3-(trifluoromethyl)-1H-pyrazol-1-yl]acetyl]-4-piperidinyl]-4-thiazolyl]-2-propen-1-one 1-(O-acetyloxime)]
Test A rating (100 = 100% disease control, 0 = no disease control relative to the controls) (Plasmopara viticola): 99%
Test C rating (100 = 100% disease control, 0 = no disease control relative to the controls) (Phytophthora infestans [1]; [3]): 99%

Cc1cc(C(F)(F)F)nn1CC(=O)N1CCC(c2nc(C(C=Cc3c(F)cccc3F)=NO)cs2)CC1 [Compound 11, 3-(2,6-difluorophenyl)-1-[2-[1-[2-[5-methyl-3-(trifluoromethyl)-1H-pyrazol-1-yl]acetyl]-4-piperidinyl]-4-thiazolyl]-2-propen-1-one 1-oxime]
Test A rating (100 = 100% disease control, 0 = no disease control relative to the controls) (Plasmopara viticola): 100%
Test C rating (100 = 100% disease control, 0 = no disease control relative to the controls) (Phytophthora infestans [1]; [3]): 98%

1-[4-[4-[(hydroxyimino)phenylmethyl]-2-thiazolyl]-1-piperidinyl-2-[5-methyl-3-(trifluoromethyl)-1H-pyrazol-1-yl]ethanone [Compound 16]
Test B rating (100 = 100% disease control, 0 = no disease control relative to the controls) (Phytophthora infestans [2]): 89%
Test A rating (100 = 100% disease control, 0 = no disease control relative to the controls) (Plasmopara viticola): 0%
Test C rating (100 = 100% disease control, 0 = no disease control relative to the controls) (Phytophthora infestans [1]; in vivo): 0%

CC(=NO)c1csc(C2CCN(C(=O)Cn3nc(C(F)(F)F)cc3C)CC2)n1 [Compound 10, 1-[4-[4-[1-(hydroxyimino)ethyl)-2-thiazolyl]-1-piperidinyl]-2-[5-methyl-3-(trifluoromethyl)-1H-pyrazol-1-yl]ethanone]
Test A rating (100 = 100% disease control, 0 = no disease control relative to the controls) (Plasmopara viticola): 71%

CCOC(=O)/C(=N\O)c1csc(C2CCN(C(=O)Cn3nc(C(F)(F)F)cc3C)CC2)n1 [Compound 14]
Test A rating (100 = 100% disease control, 0 = no disease control relative to the controls) (Plasmopara viticola): 0%
Test C rating (100 = 100% disease control, 0 = no disease control relative to the controls) (Phytophthora infestans [1]; [3]): 9%

Cc1cc(C(F)(F)F)nn1CC(=O)N1CCC(c2nc(C=NOC(C)c3ccccc3)cs2)CC1 (stereo not drawn) [Compound 22, 2-[1-[2-[5-methyl-3-(trifluoromethyl)-1H-pyrazol-1-yl]acetyl]-4-piperidinyl]-4-thiazolecarboxaldehyde 4-[O-(1-phenylethyl)oxime]]
Test A rating (100 = 100% disease control, 0 = no disease control relative to the controls) (Plasmopara viticola): 97%

Cc1cc(C(F)(F)F)nn1CC(=O)N1CCC(c2nc(C(CC(O[Si](C)(C)C(C)(C)C)c3c(F)cccc3F)=NO)cs2)CC1 (stereo not drawn) [Compound 12, 3-(2,6-difluorophenyl)-3-[[(1,1-dimethylethyl)dimethylsilyl]oxy]-1-[2-[1-[2-[5-methyl-3-(trifluoromethyl)-1H-pyrazol-1-yl]acetyl]-4-piperidinyl]-4-thiazolyl]-1-propanone 1-oxime]
pest or weed control at 200 ppm (Phytophthora infestans [2]; Phytophthora infestans, in Solanum lycopersicum, read-out: Test B rating (100 = 100% disease control, 0 = no disease control relative to the controls)): 40%
Test A rating (100 = 100% disease control, 0 = no disease control relative to the controls) (Plasmopara viticola): 0%

CON=C(C=Cc1c(F)cccc1F)c1csc(C2CCN(C(=O)Cn3nc(C(F)(F)F)cc3C)CC2)n1 [Compound 19, 3-(2,6-difluorophenyl)-1-[2-[1-[2-[5-methyl-3-(trifluoromethyl)-1H-pyrazol-1-yl]acetyl]-4-piperidinyl]-4-thiazolyl]-2-propen-1-one 1-(O-methyloxime)]
Test A rating (100 = 100% disease control, 0 = no disease control relative to the controls) (Plasmopara viticola): 83%

1-[4-[4-[(hydroxyimino)phenylmethyl]-2-thiazolyl]-1-piperidinyl-2-[5-methyl-3-(trifluoromethyl)-1H-pyrazol-1-yl]ethanone [Compound 15]
Test B rating (100 = 100% disease control, 0 = no disease control relative to the controls) (Phytophthora infestans [2]): 100%
Test A rating (100 = 100% disease control, 0 = no disease control relative to the controls) (Plasmopara viticola): 55%

— US8722678B2 (priority 2010, dated 2014)
